Experimental findings from patent publication US12168673B2 (Mitopower, Inc., priority 2022, dated 2024) are described below.

Read-outs that look alike come from different tables or passages of the source.

The test system of data set [1] is cisplatin induced acute kidney injury (AKI) mouse model. Nature of the data set: Cisplatin induced kidney injury model in mice. In kind it is in vivo, BALB/c female mice. As to the method: The study was performed using protocols approved by the Institutional Animal Ethics Committee (IAEC) based on CPCSEA guidelines for animal care and use. BALB/c female mice of 6-8 weeks age were divided into 5 groups with each group containing 6 members. Animal room environment were monitored for temperature and relative humidity twice a day. The temperature range was 22° C.±3° C. and the humidity range was 30-70%, although the upper range for humidity may be exceeded during room cleaning. Animals were housed in IVC systems and provided with cycles of 12 hours of light and 12 hours of darkness through the study. SDS Feed (M/s. SDS diets services) and autoclaved drinking water was provided ad libitum.
The vehicle for cisplatin was 0.9% saline while the vehicle for compound 100 was PBS at pH 6. The compound 100 formulations were prepared just prior to doing each time. The study was performed in 5 groups.
Animals were acclimatized prior to the study. Pretreatment with compound 100 was administered for 3 days before cisplatin dosing. Animals were weighed and administered vehicle in group 1 and cisplatin was administered at a single dose of 25 mg/kg to groups 2, 3, 4 and 5 intraperitonially on day-3 of the study. The oral dose groups (groups 3-5) were dosed with compound 100 twice daily for 6 days (3 days pre-dose and 3 days post-dose cisplatin).
Blood samples were collected at end of the study (12 h, post last dose terminal sampling, cardiac puncture) in 2 ml Eppendorf tubes, and serum was separated and stored at −20° C. for clinical chemistry analysis.
All animals survived and were sacrificed at end of the study (12 hours post last test compound dose) with an overdose of CO2. […] Serum creatinine and blood urea nitrogen (BUN) was determined using a clinical chemistry analyzer on the final day of blood collection and the results are graphically illustrated for groups 1-5 in FIG. 13 and FIG. 14, respectively.

The nature of data set [2]: Distribution in kidney and liver tissue after 24 hrs in rats. The settings on record: compared with nicotinic acid.
Data set [3] can be described thus: PK study in rats (plasma). The conditions noted are these: rats; for half-life: plasma. The class given is in vivo.
Data set [4] is described as follows: Long term solid stability at −15° C. (purity by UPLC). In kind it is physicochemical. The settings on record: for Purity % by UP LC: solid state, −15° C. (freezer). How it is done: The compound from this vial was assessed for purity by UPLC at two different timepoints: Day 0 and Day 93 (3 months).
Data set [5] in a line: Human plasma protein binding (RED dialysis). The settings on record: human, plasma, human plasma, 10 μM, 5 hours dialysis. How it is done:
The test compounds were weighed and prepared as 10 mM stocks in 100% DMSO. 10 μM is the final test concentration for all compounds.
The samples were prepared by spiking test compound(s) in plasma at 10 μM final concentration. 200 μL of plasma containing the test compound was added into the donor well (RED Chamber) of the insert. Simultaneously 350 μL of dialysis buffer (1×PBS) was added into the receiver well (white chamber). Two measurements were made for each test compound. The plate was covered with a sealer and incubated at 37° C. degrees on an orbital shaker at 500 rpm for 5 hours.
After incubation, 25 μl of plasma (RED chamber) and 25 μl of buffer (white chamber) samples were separately collected into separate centrifugation tubes. Plasma and buffer samples were precipitated with 200 μL of 100% acetonitrile containing internal standards. 25 μl of T0 (T Zero) plasma samples (samples before 5 hours incubation) were collected (To samples were processed immediately after the preparation of plasma working stock solution. These samples serve as a measure for calculating the percentage recovery of the test compound and precipitated using 100% acetonitrile containing internal standards). The samples were vortexed at 1000 rpm for 5 min and centrifuged at 4000 rpm for 10 min. The supernatant was diluted 2-fold with water and injected into LC-MS/MS.
The % of Plasma bound/unbound fraction was calculated by the following equation: % Unbound or % free=100*(Fc/Tc); % Recovery=100 (Fc+Tc)/[…] where Tc=Total compound concentration as determined by the calculated concentration on the plasma side of the membrane (concentration in plasma chamber), Fc=Free compound concentration as determined by the calculated concentration on the buffer side of the membrane (concentration in buffer chamber) and T0=Total compound concentration as determined before dialysis.

The subject of data set [6] is human hepatocytes. As to the kind of experiment: Human hepatocyte clearance. In kind it is in vitro ADME. In a few lines: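 Cryopreserved human hepatocytes at a 2 million cell working stock mixed 1:1 with 2 μM compound working stock at 37 °C, in duplicate. Samples quenched in acetonitrile with internal standard at 0, 15, 30, 60 and 90 min, then analysed by LC-MS/MS.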

The mark [7] stands for this setting: mice, 50, 250 and 500 mg/kg PO twice daily for 6 days, cisplatin 25 mg/kg IP, p<0.05.
The mark [8] stands for this setting: rat, Group 2: compound 100 83 mg/kg IV, analyte compound 100 in plasma.

By Cmax is commonly meant the peak of the concentration-time curve. The term Tmax denotes the time at which the peak concentration occurs. As usually defined, the clearance is the volume of plasma or blood freed of the substance per unit of time. High values mean efficient removal, low ones inefficient removal. Usually fraction unbound stands for free concentration divided by total concentration.

For `O=C(OC1O[C@H](CO)[C@@H](O)[C@H]1O)c1cccnc1` (stereo partly drawn) [Compound 100, (3R, 4S, 5R)-3,4-dihydroxy-5-(hydroxymethyl) tetrahydrofuran-2-yl nicotinate], in data set [1] (setting [7]), the “BUN compared to group 2 (cisplatin only)” value is listed as “significant reduction” and the “serum creatinine compared to group 2 (cisplatin only)” value is listed as “significant reduction”. Besides, the “nephroprotection (conclusion)” value in data set [1] (mice, all three oral doses) is listed as “nephroprotection”. Also, the “delivery of nicotinic acid into the tissues” value in data set [2] is “more efficiently than nicotinic acid”. Besides, the half-life in data set [3] (rat, iv, 83 mg/kg, Group 2: compound 100 83 mg/kg IV, analyte compound 100 in plasma, read-out: T1/2 (converted)) is 1.01 ± 0.22 h. The half-life in data set [3] (rat, iv, 83 mg/kg, delivered by IV, read-out: T1/2 of degradation in rat plasma (converted)) is 1 h. The half-life in data set [3] (rat, po, 415 mg/kg, oral, said to be consistent with hepatocyte stability in vitro, read-out: T1/2 following oral administration) lay within 5 to 6 h. For the same compound, in data set [3] (setting [8]), the peak level (Cmax) was 188 ± 97.2 µM, the Tmax is 8.34 ± 5.76 min and the clearance is 37.7 mL/min/kg. In addition, the AUC(0-t) in data set [3] (rat, Group 2: compound 100 83 mg/kg IV, analyte compound 100 in plasma, read-out: AUC0-1) worked out at 148 ± 34 µM·h. In addition, the Vd in data set [3] (rat, Group 2: compound 100 83 mg/kg IV, analyte compound 100 in plasma, read-out: Vss) was 3.4 ± 1.62 L/kg. Besides, the “in vivo pharmacology compared with nicotinic acid (conclusion)” value in data set [3] is “superior in vivo pharmacology than nicotinic acid with a longer half-life, lower maximal concentration (C), better bioavailability and has a depot effect in the kidney and liver”. In data set [3] (IV), the “IV pharmacokinetics profile (in words)” value is listed as “biphasic rapid distribution followed by elimination”. In addition, in data set [4] (Day 0), the “Purity % by UP LC” value is listed as 98.92%. Moreover, the “Purity % by UP LC” value in data set [4] (Day 93) was 99.62%. Further, in data set [4] (stored at −15° C. for up to three months), the “solid state stability (in words)” value is given as “stable”.

In the case of `COC(=O)[C@@H](C)NP(=O)(OC[C@H]1OC(OC(=O)c2cccnc2)[C@H](O)[C@@H]1O)Oc1ccccc1` (stereo partly drawn) [Compound 101, (3R, 4S, 5R)-3,4-dihydroxy-5-(((((1-methoxy-1-oxopropan-2-yl)amino)(phenoxy)phosphoryl)oxy)methyl)tetrahydrofuran-2-yl nicotinate], the fraction unbound at 5 h, 10 μM in data set [5] (% Bound in plasma) is 0.306; in data set [5] (% Unbound in plasma), 0.306; in data set [5] (Fraction unbound) it was 0.31. Also, in data set [6], the “Remarks (clearance class)” value is “high clearance and High”.
